Test results reported in publication PMC4791274, “Cerdulatinib, a novel dual SYK/JAK kinase inhibitor, has broad anti-tumor activity in both ABC and GCB types of diffuse large B cell lymphoma” (Oncotarget, 2015).

Experiments:
[1] = test system: panel of DLBCL cell lines; assay: MTT assay, whole panel; assay type: cell-based; settings: all eleven DLBCL cell lines, 72 h
Procedure: (§1) DLBCL cell lines were treated with various concentrations of cerdulatinib for up to 72 h. The metabolic activities of cells were determined with MTT assay according to manufacturer's instruction (Roche Applied Science, Indianapolis, IN) at 72 h time point. IC50 was calculated using the Sigma Plot generated with GraphPad Prism 6 software (GraphPad, La Jolla, CA). Cell growth was measured at every 24 h counting live cells with flow cytometry as previously described. Cells were collected every 24 h and cell viability was determined by the PE Annexin V Apoptosis Detection Kit I (BD Biosciences).

[2] = test system: DLBCL cell lines; assay: annexin V / 7-AAD cell viability by flow cytometry; assay type: cell-based; settings: all tested cell lines with the exception of LY18; up to 72 h; concentration- and time-dependent
Procedure: as §1

[3] = test system: DHL2 cells; assay: cell cycle analysis, BrdU incorporation; assay type: cell-based; settings: DHL2, 48 h
Procedure: (§2) DLBCL cells were treated with various concentrations of cerdulatinib for 48 h. Cells were incubated with 10 μM BrdU (BD Biosciences, San Jose, CA) at 37°C for 2 h, and stained with PE conjugated anti-BrdU antibody (BD Biosciences) according to the supplier's manual. The percentage of cell cycle distribution was analyzed with FlowJo (Tree Star Inc. Ashland, OR).

[4] = test system: DHL6 cells; assay: cell cycle analysis, BrdU incorporation; assay type: cell-based; settings: DHL6, 48 h
Procedure: as §2

[5] = test system: HBL1 cells; assay: cell cycle analysis, BrdU incorporation; assay type: cell-based; settings: HBL1, 48 h
Procedure: as §2

[6] = test system: LY18 cells; assay: cell cycle analysis, BrdU incorporation; assay type: cell-based; settings: LY18, 48 h
Procedure: as §2

[7] = test system: LY3 cells; assay: cell cycle analysis, BrdU incorporation; assay type: cell-based; settings: LY3, 48 h
Procedure: as §2

[8] = test system: primary human DLBCL samples; assay: MTT viability of primary DLBCL samples; assay type: cell-based; settings: 0.5 μM and 1 μM, 72 h, six primary samples
Procedure: GCB cell lines OCI-LY1, OCI-LY4, OCI-LY8, OCI-LY18, SUDHL6 and VAL were cultured in Iscove's Modified Dulbecco's Medium (IMDM) supplemented with 20% Fetal Bovine Serum (FBS) and 100 μg/mL penicillin/streptomycin. ABC cell lines SUDHL2 and HBL1 were cultured in RPMI1640 supplemented with 20% FBS and 100 μg/mL penicillin/streptomycin. OCI-LY3 cells were grown in RPMI1640 supplemented with 20% FBS, 100 μg/ml penicillin/streptomycin and HEPES. ABC cell lines OCI-LY10 was cultured in Iscove's Modified Dulbecco's Medium (IMDM) supplemented with 20% human serum and 100 μg/mL penicillin/streptomycin. ABC cell line U2932 was cultured in high glucose RPMI1640 supplemented with 20% FBS, 100 μg/ml penicillin/streptomycin. All cells were maintained in a humidified 37°C/5% CO2 incubator. […]
as §1

[9] = test system: BCR-stimulated DLBCL cells; assay: BrdU S-phase analysis under BCR stimulation; assay type: cell-based; settings: 3 μM, 48 h, anti-IgM and anti-IgG stimulation
Procedure: as §2

[10] = test system: ARK5; settings: biochemical assay; cited from earlier work
[11] = test system: MLK1; settings: biochemical assay; cited from earlier work
[12] = test system: FMS; settings: biochemical assay; cited from earlier work
[13] = test system: AMPK; settings: biochemical assay; cited from earlier work
[14] = test system: JAK3; settings: biochemical assay; cited from earlier work
[15] = test system: MARK1; settings: biochemical assay; cited from earlier work
[16] = test system: JAK1; settings: biochemical assay; cited from earlier work
[17] = test system: PAR1B-α; settings: biochemical assay; cited from earlier work
[18] = test system: MST2; settings: biochemical assay; cited from earlier work
[19] = test system: JNK3; settings: biochemical assay; cited from earlier work
[20] = test system: RSK2; settings: biochemical assay; cited from earlier work
[21] = test system: RSK4; settings: biochemical assay; cited from earlier work
[22] = test system: SYK; settings: biochemical assay; cited from earlier work
[23] = test system: CHK1; settings: biochemical assay; cited from earlier work
[24] = test system: FLT4; settings: biochemical assay; cited from earlier work
[25] = test system: FLT3; settings: biochemical assay; cited from earlier work
[26] = test system: ITK; settings: biochemical assay; cited from earlier work
[27] = test system: 24 kinases; settings: biochemical assays, Table 1; read-out: IC50's against 24 kinases; cited from earlier work
[28] = test system: JAK2; settings: cited from earlier work
[29] = test system: LCK; settings: cited from earlier work
[30] = test system: LYN; settings: cited from earlier work
[31] = test system: ZAP70; settings: cited from earlier work
[32] = test system: rat model of autoimmune disease; settings: cited from earlier work
[33] = test system: splenomegaly induced by chronic BCR stimulation; settings: mice; cited from earlier work
[34] = test system: primary CLL cells with the BTK C481S mutation; settings: cited from earlier work
[35] = test system: patients with CLL and NHL; set-up: method as in Flinn I, et al. 2015 ASCO annual meeting Abstract #8531; settings: oral, ref Flinn I, et al. 2015 ASCO annual meeting Abstract #8531; cited from earlier work

In the case of CCS(=O)(=O)N1CCN(c2ccc(Nc3ncc(C(N)=O)c(NC4CC4)n3)cc2)CC1 [cerdulatinib], the IC50 [1] is reported as ≤ 2 µM, the “cell viability (annexin V-/7-AAD-)” value [2] is reported as “reduced” and the “effect on S phase fraction” value [3] is reported as “modest”. The S phase fraction [4] was “significant dose-dependent reduction”, the S phase fraction [5] was “significant dose-dependent reduction” and the S phase fraction [6] was “significant dose-dependent reduction”. For the same compound, the “effect on S phase fraction” value [7] was “modest”, the “response of primary DLBCL cells (viability, MTT)” value [8] was “responded to cerdulatinib in a concentration-dependent manner” and the “S-phase of BCR-stimulated tumor cells” value [9] was “sensitive”. For the same compound, the IC50 [10] was 4 nM, the IC50 [11] was 5 nM and the IC50 [12] was 5 nM. The IC50 [13] was 6 nM, the IC50 [14] was 8 nM and the IC50 [15] was 10 nM. For the same compound, the IC50 [16] was 12 nM, the IC50 [17] was 13 nM and the IC50 [18] was 15 nM. The IC50 [19] was 18 nM, the IC50 [20] was 20 nM and the IC50 [21] was 28 nM. For the same compound, the IC50 [22] was 32 nM, the IC50 [23] was 42 nM and the IC50 [24] was 51 nM. The IC50 [25] was 90 nM, the IC50 [26] was 194 nM and the IC50 [27] was < 0.2 µM. For the same compound, the “cellular activity against JAK2” value [28] was “lacking cellular activity”, the “cellular activity against LCK” value [29] was “lacking cellular activity” and the “cellular activity against LYN” value [30] was “lacking cellular activity”. The “cellular activity against ZAP70” value [31] was “lacking cellular activity”, the inflammation [32] was “reduces inflammation” and the splenomegaly [33] was “alleviates splenomegaly”. For the same compound, the “proliferation of ibrutinib-resistant cells” value [34] was “completely blocking” and the target tumor reductions [35] was “greater than 50%”.
